Experimental data published in patent US11400070B2, “Methods of treating retinal diseases” (Alimera Sciences, Inc., priority 2018, dated 2022).
Where two headings read alike, the source gives them in different places. Each block holds one molecule with its values, some of them ahead of it.

Columns and labels:
ARPE-19 monolayers [1] = assay: Cytotoxicity by microscopic inspection of monolayers and TEER reduction; type: cell-based; conditions: for Cytotoxic: ARPE-19 monolayers, any concentration tested; for Cytotoxicity observed: any of the concentrations tested
Method: Cytotoxicity of test compounds was assessed by microscopic inspection of cellular monolayers and reductions in TEER following the administration of test compounds. All compounds were formulated fresh on the day of the experiment. Final concentrations were prepared by serial dilutions in DMEM media. Separate vehicle controls were prepared for each study. Formulation for all agents utilized vehicles containing less than 0.1% DMSO.

ARPE-19 monolayers [2] = assay: Suppression of gHSA-induced reduction of TEER in confluent ARPE-19 monolayers; type: cell-based
rd10 mice [3] = assay: Nitrite and nitrotyrosine assays in retinas of rd10 mice; type: in vivo, mouse; conditions: 40 mg/kg daily s.c.
Method: (§1) Mice were treated in accordance with the Association for Research in Vision and Ophthalmology. Rd10^+/+ mice (B6.CXB1-Pde6brd10/J) were given daily subcutaneous injections of 40 mg/kg metipranolol provided by the British Pharmacopoeia Commission Laboratory, Tddington, UK or vehicle (PBS containing 5.8% ethanol) between P14 to P65.
Nitrite concentration in retinas from P35 rd10 mice was measured using the Nitrate/Nitrite Colorimetric Assay Kit (Cayman Chemical Company, Ann Arbor, Mich.) according to the manufacturer's instructions. Nitrotyrosine assay was performed on retinas from P35 mice using the 3-Nitrotyrosine ELISA kit (Abcam, Cambridge, Mass.).

rd10 mice [4] = assay: Immunohistochemistry (rhodopsin, cone arrestin, 3-nitrotyrosine) of rd10 retinas; type: in vivo, mouse; conditions: 40 mg/kg daily s.c.
Method: as §1
Ten microns ocular frozen sections were stained with anti-rhodopsin antibody 1D4 (1:200, ThermoFisher Scientific, Waltham, Mass.), anti-3-nitrotyrosine antibody (10 μg/ml, EMD Millipore, Temecula, Calif.) or anti-cone arrestin antibody (1:10,000, EMD Millipore, Temecula, Calif.).

rd10 mice [5] = assay: Superoxide radicals (dihydroethidium dye) in rd10 retinas; type: in vivo, mouse; conditions: data not shown
NADPH Oxidase = NADPH Oxidase activity in retinas of rd10 mice; type: in vivo, mouse
rd10 mice [6] = assay: Outer nuclear layer (ONL) thickness in rd10 mice; type: in vivo, mouse; conditions: P35; 40 mg/kg daily s.c.; 6 locations measured
Method: as §1
Measurements of ONL thickness were performed using methods known to one of skill in the art. See Lee S Y, Usui S, Zafar A B, et al. N-acetylcysteine promotes long term survival of cones in a model of retinitis pigmentosa. 2010; 226:1843-9. Briefly, 10 micron frozen ocular sections were cut in the 12:00 to 6:00 meridian, stained with hematoxylin and eosin, visualized with an Axioskop microscope from Zeiss, Thornwood, N.Y. and images were digitized using a three charge-coupled device (CCD) color video camera from Toshiba, Tokyo, Japan, and a frame grabber. […] Three separate sections were used for each mouse and averaged. Eight animals injected with vehicle and 9 animals injected with metipranolol were used to evaluate ONL thickness between these two groups.

rd10 mice [7] = assay: TUNEL assay in retinas of rd10 mice; type: in vivo, mouse; conditions: P23; 40 mg/kg daily s.c.
Method: as §1
Apoptotic cells were identified in retinas from P23 mice using the manufacturer's instructions for the In Situ Cell Death Detection Kit (Sigma Aldrich, St. Louis, Mo.).

C57bl/6 female mice = assay: Laser-induced choroidal neovascularization at Bruch's membrane rupture sites; type: in vivo, mouse; conditions: 40 mg/kg daily s.c., 3 days before to 1 week after laser
Method: Choroidal neovascularization was induced by methods known to one of ordinary skill in the art. […] Am J Pathol 1998; 153(5):1641-6. Adult C57bl/6 female mice (Charles River, Wilmington, Mass.), 5 weeks of age, were given daily subcutaneous injections of 40 mg/kg metipranolol or vehicle (PBS containing 5.8% ethanol) every day, starting 3 days before laser-induced Bruch's membrane rupture and continuing through 1 week after laser treatment. Mice were anesthetized, with a mixture of ketamine (100 mg/kg) and xylazine (5 mg/kg) by intraperitoneal injections, and pupils were dilated with 0.5% tropicamide and 0.5% phenylephrine hydrochloride from Santen Pharmaceutical Co., Osaka, Japan. […] Following 1 week after laser, animals were euthanized and choroidal neovascularization was measured. […] The remaining eyecups consisting of the retinal pigmented epithelium, choroid, and sclera were stained with FITC-labeled Griffonia Simplicifolia lectin (GSA), which selectively stains vascular cells, fluorescent images were captured with an Axioskop microscope from Zeiss, Thornwood, N.Y., and the area of choroidal neovascularization at Bruch's membrane rupture sites were measured. These images were quantified using Image-Pro Plus software. […]

rd10 mice [8] = assay: Scotopic and photopic electroretinogram recordings in rd10 mice; type: in vivo, mouse
Method: as §1
Scotopic and photopic electroretinograms (ERGs) were recorded using a Diagnosys instrument (Espion, Littleton, Mass.). See Komeima K, Rogers B S, Lu L, Campochiaro P A. Antioxidants reduce cone cell death in a model of retinitis pigmentosa. Proc Natl Acad Sci USA 2006; 103:11300-5 and Komeima K, Rogers B S, Campochiaro P A. Antioxidants slow photoreceptor cell death in mouse models of retinitis pigmentosa. J Cell Physiol 2007; 213:809-15. For scotopic recordings, rd10 mice were dark adapted for overnight, anesthetized with a mixture of ketamine (100 mg/kg) and xylazine (5 mg/kg) by intraperitoneal injections, and pupils were dilated with 0.5% tropicamide and 0.5% phenylephrine hydrochloride provided by Santen Pharmaceutical Co., Osaka, Japan. Mice were placed on a heating pad and platinum electrodes were placed on the corneas after application of gonioscopic prism solution provided by Alcon Labs, Fort Worth, Tex. Reference electrode was attached subcutaneously between the eyes on the scalp and a ground electrode was attached to the tail. The Ganzfeld illuminator was then placed over the head in a position to ensure equal illumination to both eyes. Scotopic ERGs were recorded at 11 flash intensities (−4, −2.5, −2.2, −1.79, −1.39, −1, −0.6, −0.39, −0.20, 1.0, 1.39 log cd-s/m2). For each flash intensity, 5 readings were taken and averaged. For photopic ERGs, mice were initially light adapted for 7 minutes with 30 cd/m2 background light and flashed at 3 light intensities (0.6, 1.0, 1.39 log cd-s/m2). For each flash intensity, 5 readings were taken and averaged.

rd10 mice [9] = assay: Cone cell density in rd10 mice; type: in vivo, mouse; conditions: P65; 40 mg/kg daily s.c.; 4 quadrants
Method: as §1
Cone cell density was measured by methods known by one of skill in the arts. See Komeima K, Rogers B S, Lu L, Campochiaro P A. Antioxidants reduce cone cell death in a model of retinitis pigmentosa. Proc Natl Acad Sci USA 2006; 103:11300-5 and Komeima K, Rogers B S, Campochiaro P A. Antioxidants slow photoreceptor cell death in mouse models of retinitis pigmentosa. J Cell Physiol 2007; 213:809-15. Briefly, mice at P65 were euthanized and the eyes were removed and fixed in 4% PFA for 1 hour followed by dissection to remove cornea, iris and lens. The retina was carefully isolated from the eyecup and a small incision was made at the nasal position for future orientation. […] The retinas were flat mounted and visualized by fluorescence microscopy using an excitation wavelength of 543 nm to detect rhodamine fluorescence of PNA.

EC50 (ARPE-19 monolayers [2]; read-out: EC50 for suppression of the decrease in TEER induced by gHSA, pretreatment, gHSA 100 μg/mL): 0.98 µM
SMILES: Cc1cc(OCC(O)CNC(C)C)c(C)c(C)c1O (centres unmarked) [Desacetylmetipranolol, desacetylmetipranolol]
Cytotoxic (ARPE-19 monolayers [1]): No
Cytotoxicity observed (ARPE-19 monolayers [1]): No cytotoxicity was observed
Effect on gHSA induced reduction in RPE resistance (TEER) (ARPE-19 monolayers [2]; pretreatment 10 μM, 4 and 6 hours after gHSA): suppressed the gHSA induced reduction in RPE resistance

SMILES: CC1(C)O[C@@H]2C[C@H]3[C@@H]4C[C@H](F)C5=CC(=O)C=C[C@]5(C)[C@@]4(F)[C@@H](O)C[C@]3(C)[C@]2(C(=O)CO)O1 [Fluocinolone, fluocinolone acetonide]
Cytotoxic (ARPE-19 monolayers [1]): No
Cytotoxicity observed (ARPE-19 monolayers [1]): No cytotoxicity was observed
Effect on reduction in TEER induced by gHSA (ARPE-19 monolayers [2]; pretreatment 10^−6 to 10^−4 M, gHSA 100 μg/mL): did not significantly alter

NADPH Oxidase activity (NADPH Oxidase): did not reduce NADPH Oxidase activity
EC50 (ARPE-19 monolayers [2]; Homo sapiens, ARPE-19 assay, concentration-response, gHSA-induced TEER decrease, read-out: EC50): 1.3 µM
SMILES: CC(=O)Oc1c(C)cc(OCC(O)CNC(C)C)c(C)c1C (centres unmarked) [Metipranolol, metipranolol]
Mean concentration of nitrite in retinal homogenates (rd10 mice [3]; P35): significantly greater in retinal homogenates from P35 vehicle-treated versus metipranolol-treated rd10 mice
Mean concentration of 3-nitrotyrosine protein adducts (ELISA) vs vehicle (rd10 mice [3]; P35 retinas): significant reduction
Rhodopsin staining of outer segments (rd10 mice [4]; P35): substantially more rhodopsin staining
Staining for cone arrestin (rd10 mice [4]; P50): robust
Staining for nitrotyrosine (rd10 mice [4]; P50): greater staining for nitrotyrosine in retinas from P50 vehicle-treated rd10 mice, than in P50 metipranolol-treated rd10 mice
Superoxide radicals (dihydroethidium dye) vs vehicle (rd10 mice [5]): no differences were found
Mean ONL thickness vs vehicle (rd10 mice [6]): significantly greater at 4 of the 6 locations
TUNEL-positive cells in retina (rd10 mice [7]): few TUNEL-positive cells
Area of choroidal neovascularization at Bruch's membrane rupture sites vs vehicle (C57bl/6 female mice): significantly reduced
Mean scotopic b-wave amplitude vs vehicle (rd10 mice [8]; P35, 40 mg/kg daily s.c. from P14, all 11 flash intensities): significantly higher
Mean scotopic a-wave amplitude vs vehicle (rd10 mice [8]; P35, 40 mg/kg daily s.c. from P14, flash 1.0 and 1.39 log cd-s/m2): significantly greater
Photopic b-wave amplitudes vs vehicle (rd10 mice [8]; P35, 40 mg/kg daily s.c., 0.6 and 1.0 log cd-s/m2): significantly higher
Mean scotopic b-wave amplitude vs vehicle (rd10 mice [8]; P50, 40 mg/kg daily s.c., 1.0 and 1.39 log cd-s/m2): significantly higher
Mean photopic b-wave amplitude vs vehicle (rd10 mice [8]; P50, 40 mg/kg daily s.c., 1.39 log cd-s/m2): significantly greater
Mean cone photoreceptor cell density vs vehicle (rd10 mice [9]): significantly greater in 3 of 4 quadrants
Cytotoxic (ARPE-19 monolayers [1]): No
Cytotoxicity observed (ARPE-19 monolayers [1]): No cytotoxicity was observed
